Results published in patent US20240238299A1, “USE OF PYRROLOPYRIMIDINE COMPOUND” (GUANGZHOU JOYO PHARMATECH CO., LTD, priority 2021, published 2024).

Key:
rat primary astrocytes = assay: Cell viability (CCK-8) in NMO-IgG induced astrocyte injury model; assay type: cell-based; conditions: NMO-IgG 250 μg/mL, 24 h
[1] = tested on: IL-6 secretion by astrocytes; assay: IL-6 release caused by NMO-IgG in astrocytes (ELISA); assay type: cell-based, rat; conditions: NMO-IgG 250 μg/mL, 24 h; for IL-6 inhibition rate, Mean: 5 μM
Protocol: The compound was dissolved in DMSO to prepare a compound stock solution. The compound stock solution was then serially diluted in a gradient using DMSO to prepare a series of 1000× test compound solutions. These 1000× test compound solutions were further diluted at a ratio of 1:100 with cell culture medium to prepare a series of 10× test compound solutions. Finally, according to the experimental well plate loading design, a corresponding volume of 10× solution was added to each well, with two duplicate wells for each drug concentration. In the experiment, the test solution (i.e., 1× solution) had varying final concentrations of compound I, specifically 20, 2.222, 0.247, and 0.027 μM; the concentration of Meprednisone compound (i.e., 1× solution) was 30 μM; the concentration of BAY 11-7082 (i.e., 1× solution) was 5 μM; the final DMSO concentration in each well was 0.1%. DMSO without compound was added to blank control wells, with a final concentration of 0.1%.
1) Extraction and separation of primary astrocytes: A mixed glial cell culture medium was prepared from the cerebral cortex of 1-day-old newborn rats. After euthanizing the newborn rats, they were immersed in alcohol. Their skin was cut, the brains were removed, and the cerebral cortex was isolated. The tissues were then ground to remove the connective tissue, and the mixed glial cells were sieved through a 70 µm cell strainer. These cells were then seeded into a cell culture plate coated with poly-L-lysine. The culture medium was DMEM, containing 10% heat-inactivated fetal bovine serum, 100 U/mL penicillin, and […]. After about 12 days of in vitro culture, the cells reached confluence. Microglia, endothelial cells, and oligodendrocytes were removed from the mixed glial cells by vibratory shaking. […] 2) Culture of astrocytes: The isolated astrocytes were cultured in a 37° C., 5% CO2 incubator. The culture medium was changed every 3 to 4 days. The astrocytes could also be digested using trypsin (0.25%) and then frozen in liquid nitrogen for future use.
Human NMO-IgG was isolated from a sterile-filtered serum pool (AQP4-IgG-positive NMOSD) using a HiTrap Protein G-HP column (GE Healthcare). The serum samples were diluted at a ratio of 1:1 with binding buffer, and after packing the purification column with binding buffer, the serum sample was added. The column was subsequently washed with binding buffer again and the antibodies were eluted according to the instructions. Finally, the antibodies were concentrated on an Amicon Ultra-4 centrifugal filter (millipore) with a 10,000 MW cutoff. The concentrated immunoglobulin was filtered through a 0.22 µm filter. The protein concentration of the concentrate was determined using the BCA method and stored at −80° C. The total IgG extracted from the serum of NMOSD patients was NMO-IgG (containing AQP4-IgG), and the cells were stimulated at a protein concentration of 250 μg/mL during the experiment.
Astrocytes were cultured or revived until day 2 and then seeded into a 24-well plate at a density of 1.5×10^5 cells per well. The test compounds, including compound I, Meprednisone, and BAY11-7082, were pre-incubated with the cells for 30 minutes at the concentrations previously described. Subsequently, in each group, the cells continued to be stimulated with NMO-IgG at a final working concentration of 250 μg/mL for 24 hours to induce astrocyte damage. Normal human Control-IgG (CON-IgG) stimulation at a final working concentration of 250 μg/mL was used as a negative control.
After 24 hours of NMO-IgG stimulation of cells, the supernatant was collected. IL-6 levels were detected using an enzyme-linked immunosorbent assay (ELISA) following the instructions of the IL-6 ELISA kit (R&D Systems, USA, #RD6000B). The absorbance (OD values) of the samples in each group was measured, and the concentration of IL-6 in each experimental group was calculated through standard curve fitting. […]

[2] = tested on: MOG35-55-induced experimental autoimmune encephalomyelitis (EAE) mouse model; assay: MOG35-55-induced EAE mouse model, clinical scoring and incidence; assay type: in vivo, C57BL/6 mice; conditions: for reduction rate in AUC for clinical scoring: 14 days, vs vehicle control

Cc1ccc(S(=O)(=O)/C=C/C#N)cc1 [BAY 11-7082, BAY11-7082, reference compound]
Cell viability percentage, Mean (rat primary astrocytes; 5 μM): 39.5%
IL-6 inhibition rate, Mean [1]: 104.2%
IL-6 inhibition rate, Mean ([1]; listed as BAY compound): approximately 104.2%

C[C@@H]1C[C@H]2[C@@H]3CCC4=CC(=O)C=C[C@]4(C)[C@@]3(F)[C@@H](O)C[C@]2(C)[C@@]1(O)C(=O)CO [Dexamethasone, reference compound]
reduction rate in AUC for clinical scoring ([2]; 1 mg/kg QD oral): 65%
incidence of EAE ([2]; G3, 1 mg/kg PO QD, day 0): 0%
incidence of EAE ([2]; G3, 1 mg/kg PO QD, day 2): 0%
incidence of EAE ([2]; G3, 1 mg/kg PO QD, day 4): 0%
incidence of EAE ([2]; G3, 1 mg/kg PO QD, day 7): 0%
incidence of EAE ([2]; G3, 1 mg/kg PO QD, day 9): 0%
incidence of EAE ([2]; G3, 1 mg/kg PO QD, day 11): 0%
incidence of EAE ([2]; G3, 1 mg/kg PO QD, day 12): 10%
incidence of EAE ([2]; G3, 1 mg/kg PO QD, day 13): 20%
incidence of EAE ([2]; G3, 1 mg/kg PO QD, day 14): 60%
incidence of EAE ([2]; G3, 1 mg/kg PO QD, day 15): 60%
incidence of EAE ([2]; G3, 1 mg/kg PO QD, day 16): 60%
incidence of EAE ([2]; G3, 1 mg/kg PO QD, day 17): 50%
incidence of EAE ([2]; G3, 1 mg/kg PO QD, day 18): 50%
incidence of EAE ([2]; G3, 1 mg/kg PO QD, day 19): 50%
incidence of EAE ([2]; G3, 1 mg/kg PO QD, day 20): 50%
incidence of EAE ([2]; G3, 1 mg/kg PO QD, day 21): 50%
incidence of EAE ([2]; G3, 1 mg/kg PO QD, day 22): 40%
incidence of EAE ([2]; G3, 1 mg/kg PO QD, day 23): 30%
incidence of EAE ([2]; G3, 1 mg/kg PO QD, day 24): 30%
incidence of EAE ([2]; G3, 1 mg/kg PO QD, day 25): 30%
incidence of EAE ([2]; G3, 1 mg/kg PO QD, day 26): 30%
incidence of EAE ([2]; G3, 1 mg/kg PO QD, day 27): 30%
EAE clinical scoring, Mean ([2]; G3, 1 mg/kg QD oral, day 0): 0.00
EAE clinical scoring, Mean ([2]; G3, 1 mg/kg QD oral, day 2): 0.00
EAE clinical scoring, Mean ([2]; G3, 1 mg/kg QD oral, day 4): 0.00
EAE clinical scoring, Mean ([2]; G3, 1 mg/kg QD oral, day 7): 0.00
EAE clinical scoring, Mean ([2]; G3, 1 mg/kg QD oral, day 9): 0.00
EAE clinical scoring, Mean ([2]; G3, 1 mg/kg QD oral, day 11): 0.00
EAE clinical scoring, Mean ([2]; G3, 1 mg/kg QD oral, day 12): 0.10
EAE clinical scoring, Mean ([2]; G3, 1 mg/kg QD oral, day 13): 0.20
EAE clinical scoring, Mean ([2]; G3, 1 mg/kg QD oral, day 14): 0.70
EAE clinical scoring, Mean ([2]; G3, 1 mg/kg QD oral, day 15): 1.30
EAE clinical scoring, Mean ([2]; G3, 1 mg/kg QD oral, day 16): 1.70
EAE clinical scoring, Mean ([2]; G3, 1 mg/kg QD oral, day 17): 1.70
EAE clinical scoring, Mean ([2]; G3, 1 mg/kg QD oral, day 18): 1.40
EAE clinical scoring, Mean ([2]; G3, 1 mg/kg QD oral, day 19): 1.30
EAE clinical scoring, Mean ([2]; G3, 1 mg/kg QD oral, day 20): 1.00
EAE clinical scoring, Mean ([2]; G3, 1 mg/kg QD oral, day 21): 0.90
EAE clinical scoring, Mean ([2]; G3, 1 mg/kg QD oral, day 22): 0.80
EAE clinical scoring, Mean ([2]; G3, 1 mg/kg QD oral, day 23): 0.70
EAE clinical scoring, Mean ([2]; G3, 1 mg/kg QD oral, day 24): 0.30
EAE clinical scoring, Mean ([2]; G3, 1 mg/kg QD oral, day 25): 0.30
EAE clinical scoring, Mean ([2]; G3, 1 mg/kg QD oral, day 26): 0.30
EAE clinical scoring, Mean ([2]; G3, 1 mg/kg QD oral, day 27): 0.30

CCCCCCCCc1ccc(CCC(N)(CO)CO)cc1 [Fingolimod, reference compound]
reduction rate in AUC for clinical scoring ([2]; 0.5 mg/kg QD oral): 49%
EAE clinical scoring, Mean ([2]; G4, 0.5 mg/kg QD oral, day 0): 0.00
incidence of EAE ([2]; G4, 0.5 mg/kg QD oral, day 0): 0%
EAE clinical scoring, Mean ([2]; G4, 0.5 mg/kg QD oral, day 2): 0.00
incidence of EAE ([2]; G4, 0.5 mg/kg QD oral, day 2): 0%
EAE clinical scoring, Mean ([2]; G4, 0.5 mg/kg QD oral, day 4): 0.00
incidence of EAE ([2]; G4, 0.5 mg/kg QD oral, day 4): 0%
EAE clinical scoring, Mean ([2]; G4, 0.5 mg/kg QD oral, day 7): 0.00
incidence of EAE ([2]; G4, 0.5 mg/kg QD oral, day 7): 0%
EAE clinical scoring, Mean ([2]; G4, 0.5 mg/kg QD oral, day 9): 0.00
incidence of EAE ([2]; G4, 0.5 mg/kg QD oral, day 9): 0%
EAE clinical scoring, Mean ([2]; G4, 0.5 mg/kg QD oral, day 11): 0.00
incidence of EAE ([2]; G4, 0.5 mg/kg QD oral, day 11): 0%
EAE clinical scoring, Mean ([2]; G4, 0.5 mg/kg QD oral, day 12): 0.00
incidence of EAE ([2]; G4, 0.5 mg/kg QD oral, day 12): 0%
EAE clinical scoring, Mean ([2]; G4, 0.5 mg/kg QD oral, day 13): 0.20
incidence of EAE ([2]; G4, 0.5 mg/kg QD oral, day 13): 20%
EAE clinical scoring, Mean ([2]; G4, 0.5 mg/kg QD oral, day 14): 0.70
incidence of EAE ([2]; G4, 0.5 mg/kg QD oral, day 14): 60%
EAE clinical scoring, Mean ([2]; G4, 0.5 mg/kg QD oral, day 15): 1.30
incidence of EAE ([2]; G4, 0.5 mg/kg QD oral, day 15): 80%
EAE clinical scoring, Mean ([2]; G4, 0.5 mg/kg QD oral, day 16): 1.70
incidence of EAE ([2]; G4, 0.5 mg/kg QD oral, day 16): 80%
EAE clinical scoring, Mean ([2]; G4, 0.5 mg/kg QD oral, day 17): 1.70
incidence of EAE ([2]; G4, 0.5 mg/kg QD oral, day 17): 80%
EAE clinical scoring, Mean ([2]; G4, 0.5 mg/kg QD oral, day 18): 1.40
incidence of EAE ([2]; G4, 0.5 mg/kg QD oral, day 18): 70%
EAE clinical scoring, Mean ([2]; G4, 0.5 mg/kg QD oral, day 19): 1.30
incidence of EAE ([2]; G4, 0.5 mg/kg QD oral, day 19): 70%
EAE clinical scoring, Mean ([2]; G4, 0.5 mg/kg QD oral, day 20): 1.00
incidence of EAE ([2]; G4, 0.5 mg/kg QD oral, day 20): 60%
EAE clinical scoring, Mean ([2]; G4, 0.5 mg/kg QD oral, day 21): 0.90
incidence of EAE ([2]; G4, 0.5 mg/kg QD oral, day 21): 50%
EAE clinical scoring, Mean ([2]; G4, 0.5 mg/kg QD oral, day 22): 0.80
incidence of EAE ([2]; G4, 0.5 mg/kg QD oral, day 22): 50%
EAE clinical scoring, Mean ([2]; G4, 0.5 mg/kg QD oral, day 23): 0.70
incidence of EAE ([2]; G4, 0.5 mg/kg QD oral, day 23): 40%
EAE clinical scoring, Mean ([2]; G4, 0.5 mg/kg QD oral, day 24): 0.50
incidence of EAE ([2]; G4, 0.5 mg/kg QD oral, day 24): 20%
EAE clinical scoring, Mean ([2]; G4, 0.5 mg/kg QD oral, day 25): 0.50
incidence of EAE ([2]; G4, 0.5 mg/kg QD oral, day 25): 20%
EAE clinical scoring, Mean ([2]; G4, 0.5 mg/kg QD oral, day 26): 0.50
incidence of EAE ([2]; G4, 0.5 mg/kg QD oral, day 26): 20%
EAE clinical scoring, Mean ([2]; G4, 0.5 mg/kg QD oral, day 27): 0.50
incidence of EAE ([2]; G4, 0.5 mg/kg QD oral, day 27): 20%

C[C@H]1C[C@H]2[C@@H]3CCC4=CC(=O)C=C[C@]4(C)[C@H]3C(=O)C[C@]2(C)[C@@]1(O)C(=O)CO [Meprednisone, reference compound]
viability at 30 µM (rat primary astrocytes; Rattus norvegicus, Astrocyte, 30 μM, read-out: Cell viability percentage, Mean): 81.7%
inhibition at 30 µM ([1]; Rattus norvegicus, Astrocyte, 30 μM, read-out: IL-6 inhibition rate, Mean): ~74.8%
